Among the data in patent publication US11739070B2, “C5A receptor modulators” (IDORSIA PHARMACEUTICALS LTD, priority 2018, dated 2023) are IC50 values, retold here.

Each structure is given as a SMILES string.

This test has as its target T1, C5AR1 (Homo sapiens, UniProt P21730).
T1 construct: host or cells: CHO-K1
T1 sequence (P21730 1-350): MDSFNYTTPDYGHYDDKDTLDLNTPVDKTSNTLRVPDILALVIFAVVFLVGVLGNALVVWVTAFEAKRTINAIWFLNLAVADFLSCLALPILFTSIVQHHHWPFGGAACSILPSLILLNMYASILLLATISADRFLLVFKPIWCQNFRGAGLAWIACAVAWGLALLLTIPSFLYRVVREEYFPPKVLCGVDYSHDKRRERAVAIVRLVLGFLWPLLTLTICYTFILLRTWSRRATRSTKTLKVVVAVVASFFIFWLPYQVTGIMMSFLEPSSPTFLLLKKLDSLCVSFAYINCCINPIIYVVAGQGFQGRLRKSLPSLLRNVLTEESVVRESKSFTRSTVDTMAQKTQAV
The test is described as follows: hC5a DISCO IC50 assay (PathHunter beta-arrestin, antagonist mode). The test is classed as cell-based. The settings on record: CHO-K1 C5AR1 beta-arrestin cell line; antagonist vs 1-10 nM C5a agonist; geometric mean values; read-out: C5aR IC50. The protocol: II. Biological Assays In Vitro Assay hC5a DISCO IC50 Assay
5 μl Antagonist at 6-fold end concentration or DMSO control is added to assay medium and subsequently 5 μl 1-10 nM C5a agonist at 6 fold end concentration. Cells are centrifuged for 1 min at 1000 rpm and incubated for 1.5 hour in at 37° C. Plates are equilibrated at room temperature for several minutes before adding 12 μl/well Detection Reagent (PathHunter Detection Kit, DiscoverX, Cat #93-0001). Plates are centrifuged for 1 min at 1000 rpm and incubated for 45 minutes at RT before being measured on a Fluostar Optima, BMG Labtech. IC50 values are calculated from a serial dilution range of antagonist using inhouse software and given in nmol/l.
The calculated IC50 values may fluctuate depending on the daily cellular assay performance. Fluctuations of this kind are known to those skilled in the art. Average IC50 values from several measurements are given as geometric mean values.
As for `COCCNC(=O)c1cccc2c1n(Cc1ccccc1C(F)(F)F)c(=O)n2[C@@H]1CCN(c2c(F)cccc2C#N)C1` [Example 194, 1-[(R)-1-(2-Cyano-6-fluoro-phenyl)-pyrrolidin-3-yl]-2-oxo-3-(2-trifluoromethyl-benzyl)-2,3-dihydro-1H-benzoimidazole-4-carboxylic acid (2-methoxy-ethyl)-amide], the IC50 (usually the concentration that inhibits the measured activity by half) came out at 1480 nM.

With `Cc1cccc(F)c1N1CC[C@@H](n2c(=O)n(Cc3ccccc3C(F)(F)F)c3c(OCCO)cccc32)C1` [Example 150, 1-[(R)-1-(2-Fluoro-6-methyl-phenyl)-pyrrolidin-3-yl]-4-(2-hydroxy-ethoxy)-3-(2-trifluoromethyl-benzyl)-1,3-dihydro-benzoimidazol-2-one], the half-maximal inhibitory concentration (IC50) was 11 nM.

As to `COc1cccc(C)c1N1CC[C@@H](n2c(=O)n(Cc3ccccc3C(F)(F)F)c3c(OC)nccc32)C1` [Example 51, 4-Methoxy-1-[(R)-1-(2-methoxy-6-methyl-phenyl)-pyrrolidin-3-yl]-3-(2-trifluoromethyl-benzyl)-1,3-dihydro-imidazo[4,5-c]pyridin-2-one], the IC50 worked out at 62 nM.

With `COc1cccc2c1n(Cc1ccccc1C(F)(F)F)c(=O)n2[C@@H]1CCN(C(=O)OC(C)(C)C)C1` [Example 6, (R)-3-[4-Methoxy-2-oxo-3-(2-trifluoromethyl-benzyl)-2,3-dihydro-benzoimidazol-1-yl]-pyrrolidine-1-carboxylic acid tert-butyl ester], the IC50 is 66 nM.

For the molecule `COCCOc1ccccc1N1CC[C@@H](n2c(=O)n(Cc3ccccc3C(F)(F)F)c3c(OC)cccc32)C1` [Example 204, 4-Methoxy-1-{(R)-1-[2-(2-methoxy-ethoxy)-phenyl]-pyrrolidin-3-yl}-3-(2-trifluoromethyl-benzyl)-1,3-dihydro-benzoimidazol-2-one], the half-inhibitory concentration (IC50) was 30 nM.

For the molecule `COc1ccnc(C)c1N1CCC(n2c(=O)n(Cc3ccccc3C(F)(F)F)c3c(OC)cccc32)CC1` [Example 247, 4-Methoxy-1-(4′-methoxy-2′-methyl-3,4,5,6-tetrahydro-2H-[1,3′]bipyridinyl-4-yl)-3-(2-trifluoromethyl-benzyl)-1,3-dihydro-benzoimidazol-2-one], the IC50 was 563 nM.

On to `COC(=O)c1cccc2c1n(Cc1ccccc1C(F)(F)F)c(=O)n2[C@@H]1CCN(c2c(F)cccc2C#N)C1` [Example 98, 1-[(R)-1-(2-Cyano-6-fluoro-phenyl)-pyrrolidin-3-yl]-2-oxo-3-(2-trifluoromethyl-benzyl)-2,3-dihydro-1H-benzoimidazole-4-carboxylic acid methyl ester], for which the IC50 was 165 nM.

For the molecule `Cc1cccc(F)c1N1CC[C@@H](n2c(=O)n(Cc3ccccc3C(F)(F)F)c3c(OC4COC4)nccc32)C1` [Example 127, 1-[(R)-1-(2-Fluoro-6-methyl-phenyl)-pyrrolidin-3-yl]-4-(oxetan-3-yloxy)-3-(2-trifluoromethyl-benzyl)-1,3-dihydro-imidazo[4,5-c]pyridin-2-one], the IC50 stood at 17 nM.

Consider `COc1cccc2c1n(Cc1ccccc1C(F)(F)F)c(=O)n2[C@@H]1CCN(c2c(F)cccc2CO)C1` [Example 88, 1-[(R)-1-(2-Fluoro-6-hydroxymethyl-phenyl)-pyrrolidin-3-yl]-4-methoxy-3-(2-trifluoromethyl-benzyl)-1,3-dihydro-benzoimidazol-2-one], for which the IC50 was 39 nM.

As for `COc1ncnc(OC)c1N1CCC(n2c(=O)n(Cc3ccccc3C(F)(F)F)c3c(OC)cccc32)CC1` [Example 250, 1-[1-(4,6-Dimethoxy-pyrimidin-5-yl)-piperidin-4-yl]-4-methoxy-3-(2-trifluoromethyl-benzyl)-1,3-dihydro-benzoimidazol-2-one], the IC50 stood at 853 nM.

As for `COc1nccnc1Cn1c(=O)n([C@@H]2CCN(c3c(F)cccc3C#N)C2)c2cccc(OC)c21` [Example 112, 3-Fluoro-2-{(R)-3-[4-methoxy-3-(3-methoxy-pyrazin-2-ylmethyl)-2-oxo-2,3-dihydro-benzoimidazol-1-yl]-pyrrolidin-1-yl}-benzonitrile], the IC50 was 511 nM.

On to `COc1cccc2c1n(Cc1ccccc1C(F)(F)F)c(=O)n2[C@H]1CN(C(=O)OC(C)(C)C)C[C@H]1C` (relative stereo) [Example 199, (3R*,4R*)-3-[4-Methoxy-2-oxo-3-(2-trifluoromethyl-benzyl)-2,3-dihydro-benzoimidazol-1-yl]-4-methyl-pyrrolidine-1-carboxylic acid tert-butyl ester], for which the IC50 was determined as 119 nM.

With `COc1ccccc1N1CC[C@@H](n2c(=O)n(Cc3ccccc3C(F)(F)F)c3c(OC)cccc32)C1` [Example 16, 4-Methoxy-1-[(R)-1-(2-methoxy-phenyl)-pyrrolidin-3-yl]-3-(2-trifluoromethyl-benzyl)-1,3-dihydro-benzoimidazol-2-one], the half-maximal inhibitory concentration (IC50) came out at 19 nM.

Consider `COc1cccc2c1n(Cc1cncnc1C(C)C)c(=O)n2C1CCN(c2c(C)cccc2F)CC1` [Example 192, 1-[1-(2-Fluoro-6-methyl-phenyl)-piperidin-4-yl]-3-(4-isopropyl-pyrimidin-5-ylmethyl)-4-methoxy-1,3-dihydro-benzoimidazol-2-one], for which the half-maximal inhibitory concentration (IC50) came out at 42 nM.

For `COc1ccccc1Cn1c(=O)n([C@@H]2CCN(c3c(C)cccc3F)C2)c2ccnc(OC)c21` [Example 78, 1-[(R)-1-(2-Fluoro-6-methyl-phenyl)-pyrrolidin-3-yl]-4-methoxy-3-(2-methoxy-benzyl)-1,3-dihydro-imidazo[4,5-c]pyridin-2-one], the concentration for half-maximal inhibition (IC50) stood at 121 nM.

For `COc1cccc2c1n(Cc1ccccc1C(F)(F)F)c(=O)n2C1CCN(C(=O)C(C)(C)C)CC1` [Example 28, 1-[1-(2,2-Dimethyl-propionyl)-piperidin-4-yl]-4-methoxy-3-(2-trifluoromethyl-benzyl)-1,3-dihydro-benzoimidazol-2-one], the half-inhibitory concentration (IC50) was 1330 nM.

Turning to `COc1cccc2c1n(Cc1ccccc1C(F)(F)F)c(=O)n2C1C2CC1CN(C(=O)OC(C)(C)C)C2` (stereo not shown) [Example 191, 6-[4-Methoxy-2-oxo-3-(2-trifluoromethyl-benzyl)-2,3-dihydro-benzoimidazol-1-yl]-3-aza-bicyclo[3.1.1]heptane-3-carboxylic acid tert-butyl ester], the IC50 worked out at 114 nM.

Take `COc1nccnc1Cn1c(=O)n(C2CCN(c3c(F)cccc3C#N)CC2)c2cccc(OC)c21` [Example 97, 3-Fluoro-2-{4-[4-methoxy-3-(3-methoxy-pyrazin-2-ylmethyl)-2-oxo-2,3-dihydro-benzoimidazol-1-yl]-piperidin-1-yl}-benzonitrile]: the IC50 worked out at 1350 nM.

Consider `COc1cccc2c1n(Cc1ccccc1C(F)(F)F)c(=O)n2[C@@H]1CCN(c2c(F)cccc2CN2CC(OC)C2)C1` [Example 143, 1-{(R)-1-[2-Fluoro-6-(3-methoxy-azetidin-1-ylmethyl)-phenyl]-pyrrolidin-3-yl}-4-methoxy-3-(2-trifluoromethyl-benzyl)-1,3-dihydro-benzoimidazol-2-one], for which the 50% inhibitory concentration (IC50) stood at 108 nM.

`Cc1cccc(F)c1N1CC[C@@H](n2c(=O)n(Cc3ccccc3C(F)(F)F)c3c(OC4CCNCC4)nccc32)C1` [Example 124, 1-[(R)-1-(2-Fluoro-6-methyl-phenyl)-pyrrolidin-3-yl]-4-(piperidin-4-yloxy)-3-(2-trifluoromethyl-benzyl)-1,3-dihydro-imidazo[4,5-c]pyridin-2-one]: the IC50 was found to be 5220 nM.

In the case of `COCCN(C)Cc1cccc(F)c1N1CC[C@@H](n2c(=O)n(Cc3ccccc3C(F)(F)F)c3c(OC)cccc32)C1` [Example 139, 1-[(R)-1-(2-Fluoro-6-{[(2-methoxy-ethyl)-methyl-amino]-methyl}-phenyl)-pyrrolidin-3-yl]-4-methoxy-3-(2-trifluoromethyl-benzyl)-1,3-dihydro-benzoimidazol-2-one], the concentration for half-maximal inhibition (IC50) was found to be 227 nM.

Regarding `COc1cccc2c1n(Cc1nccnc1C(F)(F)F)c(=O)n2[C@@H]1CCN(c2c(F)cccc2C#N)C1` [Example 111, 3-Fluoro-2-{(R)-3-[4-methoxy-2-oxo-3-(3-trifluoromethyl-pyrazin-2-ylmethyl)-2,3-dihydro-benzoimidazol-1-yl]-pyrrolidin-1-yl}-benzonitrile], the IC50 was determined as 264 nM.

`COc1nccc(C)c1N1CC[C@@H](n2c(=O)n(Cc3ccccc3C(F)(F)F)c3c(OC)cccc32)C1` [Example 33, 4-Methoxy-1-[(R)-1-(2-methoxy-4-methyl-pyridin-3-yl)-pyrrolidin-3-yl]-3-(2-trifluoromethyl-benzyl)-1,3-dihydro-benzoimidazol-2-one]: the half-inhibitory concentration (IC50) was 8 nM.

Turning to `COc1cccc2c1n(Cc1ccccc1C(F)(F)F)c(=O)n2[C@@H]1CCN(C(=O)c2ccccc2)C1` [Example 27, 1-((R)-1-Benzoyl-pyrrolidin-3-yl)-4-methoxy-3-(2-trifluoromethyl-benzyl)-1,3-dihydro-benzoimidazol-2-one], the concentration for half-maximal inhibition (IC50) turned out to be 3340 nM.

As for `CNCc1cccc(F)c1N1CC[C@@H](n2c(=O)n(Cc3ccccc3C(F)(F)F)c3c(OC)cccc32)C1` [Example 103, 1-[(R)-1-(2-Fluoro-6-methylaminomethyl-phenyl)-pyrrolidin-3-yl]-4-methoxy-3-(2-trifluoromethyl-benzyl)-1,3-dihydro-benzoimidazol-2-one], the concentration for half-maximal inhibition (IC50) was 669 nM.
